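Cells were grown in 96-well plates and exposed to each compound for 48 hours at five concentrations; endpoints were interpolated linearly between bracketing concentrations, or set to the highest concentration if not reached. At the GI50, growth is halved.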 The source made the active and inactive calls. No stated cut-off is given here; in the data, active = GI50 up to about 1.1 µM and inactive = higher.
How the values were obtained:
Assay in all cases: DTP human tumour cell line panel, 48 h
786-0 = system: 786-0
CAKI-1 = system: CAKI-1
COLO 205 = system: COLO 205
DU-145 = system: DU-145
HCC 2998 = system: HCC 2998
HCT-15 = system: HCT-15
HL-60 = system: HL-60
Hs-578T = system: Hs-578T
K562 = system: K562
LOX IMVI = system: LOX IMVI
MDA-MB-231 = system: MDA-MB-231
MDA-N = system: MDA-N
NCI-H460 = system: NCI-H460
OVCAR-4 = system: OVCAR-4
RPMI-8226 = system: RPMI-8226
SF-295 = system: SF-295
SK-MEL-2 = system: SK-MEL-2
SK-MEL-5 = system: SK-MEL-5
SK-OV-3 = system: SK-OV-3
SNB-75 = system: SNB-75

Row | SMILES | GI50 (786-0) | GI50 (CAKI-1) | GI50 (COLO 205) | GI50 (DU-145) | GI50 (HCC 2998) | GI50 (HCT-15) | GI50 (HL-60) | GI50 (Hs-578T) | GI50 (K562) | GI50 (LOX IMVI) | GI50 (MDA-MB-231) | GI50 (MDA-N) | GI50 (NCI-H460) | GI50 (OVCAR-4) | GI50 (RPMI-8226) | GI50 (SF-295) | GI50 (SK-MEL-2) | GI50 (SK-MEL-5) | GI50 (SK-OV-3) | GI50 (SNB-75)
1 | Cc1ccc2c(c1)C=CC1(O2)N(c2ccccc2)C(=S)OC1(C)C (stereo not given) | > 100 µM (inactive) | > 100 µM (inactive) | > 100 µM (inactive) | > 100 µM (inactive) | 76.9 µM (inactive) | 46.2 µM | 5.37 µM (inactive) | 31.9 µM (inactive) | 7.29 µM (inactive) | > 100 µM (inactive) | > 100 µM (inactive) | 29.1 µM (inactive) | > 100 µM (inactive) | 25.8 µM (inactive) | 22.9 µM (inactive) | 48.2 µM (inactive) | 29 µM (inactive) | 32.1 µM (inactive) | 21.4 µM (inactive) | > 100 µM (inactive)
2 | O=C1c2cc3c(cc2CC12Cc1ccccc1C2)CCC3 | 21.1 µM (inactive) | 15.5 µM (inactive) | 18.6 µM (inactive) | 52 µM (inactive) | 31 µM (inactive) | 33.9 µM | 25.5 µM (inactive) | 31.6 µM (inactive) | 44.3 µM (inactive) | 18.6 µM (inactive) | 23.6 µM (inactive) | 27.3 µM (inactive) | 25.8 µM (inactive) | 50.2 µM (inactive) | 21.9 µM (inactive) | 46.5 µM (inactive) | 23.5 µM (inactive) | 18.3 µM (inactive) | > 100 µM (inactive) | 31.6 µM (inactive)
3 | OCCCNc1[nH]cnc2nncc1-2 | > 100 µM (inactive) | 9.82 µM (inactive) | > 100 µM (inactive) | > 100 µM (inactive) | > 100 µM (inactive) | > 100 µM | > 100 µM (inactive) | > 100 µM (inactive) | > 100 µM (inactive) | > 100 µM (inactive) | > 100 µM (inactive) | > 100 µM (inactive) | > 100 µM (inactive) | > 100 µM (inactive) | > 100 µM (inactive) | > 100 µM (inactive) | > 100 µM (inactive) | > 100 µM (inactive) | > 100 µM (inactive) | > 100 µM (inactive)
4 | CCc1cccc(CC)c1NC(=O)C(C#N)C1=C(Cl)C(=O)c2ccccc2C1=O (stereo not given) | 16.4 µM (inactive) | 15.6 µM (inactive) | 20.3 µM (inactive) | 16.8 µM (inactive) | 16.9 µM (inactive) | 20.6 µM | 1.3 µM (inactive) | < 0.01 µM (active) | 2.33 µM (inactive) | 12.7 µM (inactive) | 5.55 µM (inactive) | 16.7 µM (inactive) | 22.6 µM (inactive) | 16.6 µM (inactive) | 4.56 µM (inactive) | 15.7 µM (inactive) | 18.8 µM (inactive) | 14.7 µM (inactive) | 19.7 µM (inactive) | 5.18 µM (inactive)
5 | O=C1c2cccnc2C(=O)c2c1nc1ccccc1c2-c1ccc2c3c(nc4ccccc42)C(=O)c2cccnc2-c13 | 0.417 µM (active) | 1.75 µM (inactive) | 2.08 µM (inactive) | 0.359 µM (active) | 1.59 µM (inactive) | 0.195 µM | 1.2 µM (inactive) | 1.81 µM (inactive) | 1.58 µM (inactive) | 0.437 µM (active) | 2.21 µM (inactive) | 2.13 µM (inactive) | 1.55 µM (inactive) | 1.08 µM (active) | 1.63 µM (inactive) | 2.56 µM (inactive) | 2.1 µM (inactive) | 0.467 µM (active) | 1.85 µM (inactive) | 2.07 µM (inactive)
6 | Cc1ccc(S(=O)(=O)N/C(=C\C=C\c2ccccc2)C(=O)C(C)(C)C)cc1 | 27.5 µM (inactive) | > 100 µM (inactive) | > 100 µM (inactive) | > 100 µM (inactive) | > 100 µM (inactive) | > 100 µM | > 100 µM (inactive) | 35.1 µM (inactive) | > 100 µM (inactive) | > 100 µM (inactive) | 29.9 µM (inactive) | > 100 µM (inactive) | > 100 µM (inactive) | 35.2 µM (inactive) | 0.492 µM (active) | 75 µM (inactive) | > 100 µM (inactive) | 56 µM (inactive) | 38.6 µM (inactive) | 56.2 µM (inactive)
7 | Cc1c(-c2ccccc2)n[nH]c1NC1(C)C(=O)N(/N=C/c2ccccc2)N=C1c1ccccc1 (stereo not given) | > 100 µM (inactive) | > 100 µM (inactive) | > 30.5 µM (inactive) | > 100 µM (inactive) | > 100 µM (inactive) | > 44.5 µM | 46.6 µM (inactive) | > 100 µM (inactive) | 6.15 µM (inactive) | > 100 µM (inactive) | > 100 µM (inactive) | 97.5 µM (inactive) | > 62.5 µM (inactive) | 31.8 µM (inactive) | 5.7 µM (inactive) | 68.2 µM (inactive) | > 84.1 µM (inactive) | 7.96 µM (inactive) | > 100 µM (inactive) | > 100 µM (inactive)
